The values that follow come from paper PMC5613772 (Biochemistry and Biophysics Reports, 2016).

As a reminder, the Kd is the free concentration of one partner at which half of the binding sites on the other are occupied at equilibrium, for simple one-to-one binding.

The target of assay [1] is T1, L. donovani Gcs full length (GcsF, LdGcs, Gcs) (Leishmania donovani, UniProt Q67BG3).
T1 sequence (Q67BG3 1-687): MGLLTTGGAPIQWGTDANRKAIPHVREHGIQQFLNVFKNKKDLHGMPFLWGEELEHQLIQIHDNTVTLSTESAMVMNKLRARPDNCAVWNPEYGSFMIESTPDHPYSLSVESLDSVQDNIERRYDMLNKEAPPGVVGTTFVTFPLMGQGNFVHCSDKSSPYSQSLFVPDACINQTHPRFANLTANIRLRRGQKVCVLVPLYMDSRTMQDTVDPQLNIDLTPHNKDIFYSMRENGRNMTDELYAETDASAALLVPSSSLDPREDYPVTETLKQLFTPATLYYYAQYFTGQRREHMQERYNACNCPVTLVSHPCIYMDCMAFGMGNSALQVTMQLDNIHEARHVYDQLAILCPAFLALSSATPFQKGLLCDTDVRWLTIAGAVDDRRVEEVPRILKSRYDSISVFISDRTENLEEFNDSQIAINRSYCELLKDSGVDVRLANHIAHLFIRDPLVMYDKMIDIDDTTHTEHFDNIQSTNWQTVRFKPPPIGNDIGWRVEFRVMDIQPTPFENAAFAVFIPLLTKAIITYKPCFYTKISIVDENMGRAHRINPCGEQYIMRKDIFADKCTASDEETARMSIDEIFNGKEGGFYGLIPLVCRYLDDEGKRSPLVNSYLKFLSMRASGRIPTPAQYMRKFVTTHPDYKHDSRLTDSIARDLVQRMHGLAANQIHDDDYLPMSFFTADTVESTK
In words: tryptophan fluorescence quenching. In kind it is binding.

Assay [2] has as its target GcsC (Leishmania donovani, UniProt Q67BG3). The settings on record: value said to be in Table 2 but not printed there.
Assay [3] concerns the target L. donovani Gcs full length (GcsF, LdGcs, Gcs) (Leishmania donovani, UniProt Q67BG3, R498A). As to the kind of experiment: biochemical.
Assay [4] addresses L. donovani Gcs full length (GcsF, LdGcs, Gcs) (Leishmania donovani, UniProt Q67BG3, E99A). As to the kind of experiment: biochemical.
Assay [5] addresses L. donovani Gcs full length (GcsF, LdGcs, Gcs) (Leishmania donovani, UniProt Q67BG3, E55A). As to the kind of experiment: biochemical.
Assay [6] deals with L. donovani Gcs full length (GcsF, LdGcs, Gcs) (Leishmania donovani, UniProt Q67BG3, E92A). In words: biochemical.

For `Nc1ncnc2c1ncn2[C@@H]1O[C@H](COP(=O)(O)OP(=O)(O)OP(=O)(O)O)[C@@H](O)[C@H]1O` [ATP], the Kd in assay [1] worked out at 2.7 ± 0.3 µM; in assay [3], 1550 ± 238 µM; in assay [4], 5.8 ± 0.3 µM; in assay [5], 2.5 ± 1 µM; in assay [6], 3235 ± 0.937 µM. In addition, the “ITC or tryptophan fluorescence quenching (not told)” value in assay [2] is “GcsT and C-terminal constructs also show comparable binding with ATP”.
Consider `N[C@@H](CS)C(=O)O` [L-Cysteine], for which the results for the Kd in assay [1], in assay [5] and in assay [6] were 177 ± 2.6 µM, 95 ± 2.1 µM and 115 ± 0.35 µM, respectively.
Turning to `N[C@@H](CCC(=O)O)C(=O)O` [L-Glutamate], the Kd in assay [1] was found to be 93.7 ± 1.8 µM; in assay [3], 890 ± 0.167 µM; in assay [4], 666 ± 0.3 µM; in assay [5], 793 ± 0.182 µM; in assay [6], 107 ± 0.16 µM.
